Values joined by “and” are separate entries in the source; they are usually repeats but may differ in a detail not shown here. Equal entries are not always repeated. “Also recorded” adds a separate entry of the source.
Columns and labels:
[1] = test system: transient focal cerebral ischemia model rat; test: Cerebral infarct volume in transient focal cerebral ischemia model rat (Example 33; test substance given immediately after MCA recanalization); assay type: in vivo; conditions: for Cerebral infarct volume (mm^3): tail vein, brain extracted 24 hours after MCA occlusion, mean ± S.E. of 10 rats; for Individual data of the cerebral infarct volume (mm^3): individual animals
Procedure: The activity of the compound of the present disclosure was evaluated according to the following procedure.
Compound 9 (aqueous solution (50 mg/mL) prepared by dissolving a white powder in a saturated NaHCO3 solution)
Edaravone (trade name: Radicut (registered trademark) Mitsubishi Tanabe Pharma Corporation) Vehicle
Japanese Pharmacopoeia physiological saline (hereinafter, physiological saline) (Otsuka Pharmaceutical Factory, Inc.)
Rat (strain: Crl: CD (SD)) (THE JACKSON LABORATORY JAPAN, INC.)
• Intravenous administration
Using a syringe (1 mL, Terumo Corporation) equipped with an injection needle (25G×5/8, Terumo Corporation), tail vein administration was performed immediately after MCA recanalization.
Using a syringe (1 mL, Terumo Corporation) equipped with an injection needle (25G×5/8, Terumo Corporation), tail vein administration was performed immediately after MCA recanalization and 30 minutes after MCA recanalization (actual result: ±0 minutes from the specified time, allowable range: ±3 minutes from the specified time).
• 0.2 mg/kg and 2 mg/kg
• (1) The received test substance was thawed and then divided into 4 brown glass bottles by 0.1 mL. • (2) The test substances divided into small portions were stored frozen (measured value: −24.4 to −22.6° C., allowable range: −35 to −10° C.) until use in preparation. • (3) One test substance divided into small portions for each day of administration was thawed, and 4.9 mL of physiological saline was added to prepare a 1 mg/mL administration solution . . . I • (4) From I, 0.5 mL was dispensed into a brown glass bottle, and 4.5 mL of physiological saline was added to prepare a 0.1 mg/mL administration solution. • (5) It was prepared before use. • (6) The remainder after administration was discarded.
(§1) The rat was fixed in a supine position under 2% isoflurane inhalation anesthesia (Lot No.: 234KAP, Mylan Inc., laughing gas:oxygen=7:3). A thermometer probe connected to a digital thermometer (TX1002, Yokogawa Meters & Instruments Corporation) was inserted into the rectum to perform thermoregulation during surgery, and changes in rectal temperature before and after surgery were monitored. As a result, since a decrease in rectal temperature was not observed in any rat, heating was not performed. The right common carotid artery, external carotid artery, and internal carotid artery were exposed, and the common carotid artery and external carotid artery were ligated with sutures. A nylon yarn (plug) No. 4 previously coated with silicon (Kulzer Japan Co., Ltd.) and cut to a length of 19 mm was inserted from the bifurcation of the external carotid artery and the internal carotid artery to occlude the right MCA. After MCA occlusion, the neck skin was sutured and released from anesthesia. Flexion of the contralateral forelimb on the occluded side was confirmed 30 minutes after MCA occlusion. Under 2% isoflurane inhalation anesthesia, the right common carotid artery, the right external carotid artery, and the right internal carotid artery were exposed again, the plug was removed 2 hours after MCA occlusion, and the blood flow of the right MCA was resumed. After the blood flow of the right MCA was resumed, ligation of the right internal carotid artery and suturing of the neck skin were performed to awaken the animal from anesthesia. Note that benzylpenicillin potassium (Lot No.: 00904, Meiji Seika Pharma Co., Ltd.) was administered intramuscularly at a dosage of 20,000 units/kg before the MCA occlusion surgery.
24 hours after MCA occlusion, the animal was decapitated under 2% isoflurane inhalation anesthesia (Lot No.: 234KAP, Mylan Inc., laughing gas:oxygen=7:3), and the whole brain was extracted to prepare a brain section having a thickness of 2 mm. Referring to Paxinos and Watson brain atlas [axinos G. and Watson C. The rat brain in stereotaxic coordinates, second edition. […]

[2] = test system: transient focal cerebral ischemia model rat; test: Cerebral infarct volume in transient focal cerebral ischemia (MCA occlusion/recanalization) model rat; assay type: in vivo; conditions: for Cerebral infarct volume: group mean ± S.E., n=10, brain extracted 24 hours after MCA occlusion; for Cerebral infarct volume compared with the vehicle group: Dunnett's multiple comparison test
Excerpt: as §1, with “248KKY, Viatris Pharmaceutical Co., Ltd.,” for “234KAP, Mylan Inc.,”
24 hours after MCA occlusion, the animal was decapitated under 2% isoflurane inhalation anesthesia (Lot No.: 248KKY, Viatris Pharmaceutical Co., Ltd., laughing gas:oxygen=7:3), and the whole brain was extracted to prepare a brain section having a thickness of 2 mm. Referring to Paxinos and Watson brain atlas [Paxinos G. and Watson C. The rat brain in stereotaxic coordinates, second edition. San Diego, New York, Boston, London, Sydney, Tokyo, Toronto: Academic Press Inc.; 1986.], the brain sections were set at positions where coronal planes of 4 mm anterior to Bregma, 2 mm anterior to Bregma, above Bregma, 2 mm posterior to Bregma, 4 mm posterior to Bregma, and 6 mm posterior to Bregma were obtained. The brain sections were immersed in a 1% (W/V) 2,3,5-triphenyltetrazolium chloride (Lot No.: M7B5587, Nacalai Tesque Inc.) solution at room temperature, stained, and photographed. From the obtained photograph, brain sections (infarction site and non-infarction site) were traced on an OHP sheet. The traced image was captured by a scanner (Seiko Epson Corporation), image analysis was performed using WinROOF2015 (MITANI CORPORATION), a cerebral infarct area was obtained as a measured value, and a cerebral infarct volume between 4 mm anterior to Bregma and 6 mm posterior to Bregma was calculated from the obtained value.
[formula] • V: Cerebral infarct volume • a: Cerebral infarct area on section of 4 mm anterior to Bregma • b: Cerebral infarct area on section of 2 mm anterior to Bregma • c: Cerebral infarct area on section of Bregma • d: Cerebral infarct area on section of 2 mm posterior to Bregma • e: Cerebral infarct area on section of 4 mm posterior to Bregma • f: Cerebral infarct area on section of 6 mm posterior to Bregma
• Calculation of cerebral infarct volume (mm^3)
The employed data were expressed as a mean±standard error.
The following combinations were performed.

Which results are given for `CC1=NN(c2ccccc2)C(=O)C1` [Edaravone, reference compound]?
Cerebral infarct volume compared with the vehicle group (Student's t-test) ([1]; Edaravone 3 mg/kg per dose i.v., twice): showed low values, and a statistically significant difference was observed; also recorded: showed a lower value than that of the vehicle group, and a statistically significant difference was observed; Cerebral infarct volume (mm^3) ([1]; Edaravone 3 mg/kg per dose, immediately after and 30 minutes after MCA recanalization): 292.8±14.2 mm^3 and 292.8 ± 14.2 ^## mm^3 and 292.8 mm^3; Individual data of the cerebral infarct volume (mm^3) ([1]; Edaravone 3 mg/kg per dose group (n = 10)): 248.4 mm^3 and 324.8 mm^3 and 282.1 mm^3 and 375.0 mm^3 and 308.0 mm^3 and 319.8 mm^3 and 217.2 mm^3 and 299.1 mm^3 and 253.8 mm^3; Cerebral infarct volume ([2]; Edaravone group 3 mg/kg): 232.2±14.6 mm^3 and 232.2 ± 14.6 ^## mm^3 and 232.2 mm^3; Cerebral infarct volume, individual data ([2]; individual animals Nos. 401-414, Edaravone group): 140.7 mm^3 and 218.3 mm^3 and 221.0 mm^3 and 170.0 mm^3 and 231.1 mm^3 and 268.2 mm^3 and 268.9 mm^3 and 278.6 mm^3 and 268.4 mm^3 and 257.0 mm^3

Which “Cerebral infarct volume (mm^3)” value ([1]; Compound 9 0.2 mg/kg, immediately after MCA recanalization, 2 hours MCA occlusion, 0.2 mg/kg) does the source give for `CC[C@@]1(C)Oc2cc(ccc2O)C[C@H](NC)C(=O)N[C@@H](C(C)C)C(=O)N[C@@H]1C(=O)N[C@@H](CC(=O)O)C(=O)O` [Compound 9] here?
The value was 336.9±14.2 mm^3 and 336.9 mm^3.

What about the “Statistical difference of cerebral infarct volume from the vehicle group (Dunnett's multiple comparison test)” value ([1]; Compound 9 2 mg/kg i.v.) of the same compound?
Its value is “a statistically significant difference was observed in the 2 mg/kg group”.

And the “Cerebral infarct volume (mm^3)” value ([1]; Compound 9 2 mg/kg, immediately after MCA recanalization, 2 hours MCA occlusion, 2 mg/kg)?
Its value is 301.8±12.8 mm^3 and 301.8 ± 12.8 ^** mm^3 and 301.8 mm^3.

What about the “Cerebral infarct reduction action: cerebral infarct volume compared with the vehicle group” value ([1]; Compound 9 groups, 0.2 mg/kg and 2 mg/kg i.v.) of the same compound?
The value was “all showed low values; also recorded: has an ameliorating effect on cerebral infarct after cerebrovascular disorder”.

And the “Individual data of the cerebral infarct volume (mm^3)” value ([1]; Compound 9 0.2 mg/kg group (n = 10), 0.2 mg/kg)?
Its value is 341.9 mm^3 and 350.2 mm^3 and 331.8 mm^3 and 366.5 mm^3 and 372.7 mm^3 and 219.1 mm^3 and 318.3 mm^3 and 339.3 mm^3 and 369.8 mm^3 and 359.8 mm^3.

What about the “Individual data of the cerebral infarct volume (mm^3)” value ([1]; Compound 9 2 mg/kg group (n = 10), 2 mg/kg) of the same compound?
The value was 264.4 mm^3 and 343.3 mm^3 and 342.4 mm^3 and 374.1 mm^3 and 279.7 mm^3 and 273.1 mm^3 and 293.4 mm^3 and 251.2 mm^3 and 316.6 mm^3 and 279.6 mm^3.

What about the “Cerebral infarct volume compared with the vehicle group” value ([2]; administered 30 minutes after MCA recanalization) of the same compound?
The value was “ameliorating effect on cerebral infarct”.

What about the “Cerebral infarct volume compared with the vehicle group” value ([2]; administered 1 hour after MCA recanalization, p value=0.0525) of the same compound?
The value was “improvement tendency”.

What about the Cerebral infarct volume ([2]; 2 mg/kg administered 30 minutes after MCA reperfusion) of the same compound?
Its Cerebral infarct volume is 250.0±20.5 mm^3 and 250.0 ± 20.5 * mm^3 and 250.0 mm^3.

And the Cerebral infarct volume ([2]; 2 mg/kg administered 1 hour after MCA reperfusion)?
The Cerebral infarct volume was 260.4±13.9 mm^3 and 260.4 mm^3.

What about the “Cerebral infarct volume, individual data” value ([2]; individual animals Nos. 202-214, administered 30 minutes after MCA reperfusion) of the same compound?
The value was 254.3 mm^3 and 319.8 mm^3 and 274.6 mm^3 and 210.2 mm^3 and 133.9 mm^3 and 192.3 mm^3 and 272.2 mm^3 and 296.0 mm^3 and 201.4 mm^3 and 345.5 mm^3.

And the “Cerebral infarct volume, individual data” value ([2]; individual animals Nos. 301-314, second Compound 9 group (head prints 30 minutes after MCA reperfusion; mean matches the 1 hour group))?
The value was 253.1 mm^3 and 243.0 mm^3 and 355.2 mm^3 and 220.7 mm^3 and 261.4 mm^3 and 250.7 mm^3 and 192.0 mm^3 and 256.3 mm^3 and 272.3 mm^3 and 299.0 mm^3.

From patent publication US20260151451A1, “CYCLIC PEPTIDE DERIVATIVE COMPOSITION FOR TREATING OR PREVENTING CENTRAL NERVOUS SYSTEM INJURY/DISEASE” (DKS Co. Ltd., priority 2022, published 2026)
